Results taken from US9522914B2, “Azole derivative” (TAISHO PHARMACEUTICAL CO., LTD, priority 2011, dated 2016).

Target: Human V1b receptor (Homo sapiens (Human), UniProt P47901)
Experiment: Binding Test for V1b Receptor ([3H]AVP, crude membrane preparation of 293FT cells)
Conditions: inhibition of [3H]AVP binding (0.4 to 1 nmol/L), room temperature, 60 minutes
Method in brief: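 Crude membranes from 293FT cells transiently expressing human V1b, incubated with [3H]AVP (0.4 to 1 nmol/L) and compound (0.01 nmol/L–1 μmol/L final) in Tris pH 7.4 with MgCl2 and 0.1% BSA, 60 min at room temperature. Bound label collected by filtration. Nonspecific binding defined with unlabeled AVP; IC50 from dose-response curve.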

Human V1b receptor, sequence (P47901 whole entry): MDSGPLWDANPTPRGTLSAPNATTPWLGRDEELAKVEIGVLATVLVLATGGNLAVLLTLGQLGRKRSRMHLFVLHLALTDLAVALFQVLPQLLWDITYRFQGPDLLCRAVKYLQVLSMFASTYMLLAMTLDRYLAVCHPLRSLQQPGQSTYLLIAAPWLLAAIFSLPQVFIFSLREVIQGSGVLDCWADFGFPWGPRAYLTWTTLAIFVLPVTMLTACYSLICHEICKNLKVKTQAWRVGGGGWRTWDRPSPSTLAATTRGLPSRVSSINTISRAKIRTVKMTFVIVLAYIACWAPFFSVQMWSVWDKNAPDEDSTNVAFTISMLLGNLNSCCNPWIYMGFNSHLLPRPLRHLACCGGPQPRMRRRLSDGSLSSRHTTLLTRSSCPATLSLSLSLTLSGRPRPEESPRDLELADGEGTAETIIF

Row | Compound | IC50
1 | COc1cccc(-c2nc(-c3ccc(CCN4CCOCC4C)cc3)nn2CC(=O)NC(C)C)c1 (stereo not shown) [Example B-30, 2-[5-(3-methoxyphenyl)-3-{4-[2-(3-methylmorpholin-4-yl)ethyl]phenyl}-1H-1,2,4-triazol-1-yl]-N-(propan-2-yl)acetamide] | 10 to 100 nM
2 | CC(C)NC(=O)Cc1nn(-c2ccc(CCN3CC=CCC3)cc2)c(=O)n1-c1cccc(Cl)c1 [Example D-47, 2-[4-(3-chlorophenyl)-1-{4-[2-(3,6-dihydropyridin-1(2H)-yl)ethyl]phenyl}-5-oxo-4,5-dihydro-1H-1,2,4-triazol-3-yl]-N-(propan-2-yl)acetamide] | 100 to 1000 nM
3 | COc1cccc(-c2nc(-c3ccc(CCN4CCC(C)(O)CC4)cc3)nn2CC(=O)NC(C)C)c1 [Example B-36, 2-[3-{4-[2-(4-hydroxy-4-methylpiperidin-1-yl)ethyl]phenyl}-5-(3-methoxyphenyl)-1H-1,2,4-triazol-1-yl]-N-(propan-2-yl)acetamide] | 10 to 100 nM
4 | CC(C)NC(=O)Cc1nn(-c2ccc(CCN3CCSCC3)cc2)c(=O)n1-c1cccc(Cl)c1 [Example D-48, 2-[4-(3-chlorophenyl)-5-oxo-1-{4-[2-(thiomorpholin-4-yl)ethyl]phenyl}-4,5-dihydro-1H-1,2,4-triazol-3-yl]-N-(propan-2-yl)acetamide] | 10 to 100 nM
5 | CC(C)NC(=O)Cn1cc(-c2ccc(CCN3CCCC(O)C3)cc2)nc1-c1cccc(Cl)c1 (stereo not shown) [Example A-05, 2-[2-(3-chlorophenyl)-4-{4-[2-(3-hydroxypiperidin-1-yl)ethyl]phenyl}-1H-imidazol-1-yl]-N-(propan-2-yl)acetamide] | 10 to 100 nM
6 | COc1cccc(-c2nc(-c3ccc(CCN4C(C)COCC4C)cc3)nn2CC(=O)NC(C)C)c1 (stereo not shown) [Example B-41, 2-[3-{4-[2-(3,5-dimethylmorpholin-4-yl)ethyl]phenyl}-5-(3-methoxyphenyl)-1H-1,2,4-triazol-1-yl]-N-(propan-2-yl)acetamide] | 10 to 100 nM
7 | CC(C)NC(=O)Cn1cc(-c2ccc(CCN3CC4(COC4)C3)cc2)nc1-c1cccc(Cl)c1 [Example A-03, 2-[2-(3-chlorophenyl)-4-{4-[2-(2-oxa-6-azaspiro[3.3]hept-6-yl)ethyl]phenyl}-1H-imidazol-1-yl]-N-(propan-2-yl)acetamide] | 10 to 100 nM
8 | CC(C)NC(=O)Cc1cn(-c2ccc(CCN3CC4(COC4)C3)cc2)nc1-c1cccc(Cl)c1 [Example C-04, 2-[3-(3-chlorophenyl)-1-{4-[2-(2-oxa-6-azaspiro[3.3]hept-6-yl)ethyl]phenyl}-1H-pyrazol-4-yl]-N-(propan-2-yl)acetamide] | 10 to 100 nM
9 | COc1cc(-c2nc(-c3ccc(CCN4C5CCC4COC5)cc3)cn2CC(=O)NC(C)C)ccc1F [Example A-22, 2-[2-(4-fluoro-3-methoxyphenyl)-4-{4-[2-(3-oxa-8-azabicyclo[3.2.1]oct-8-yl)ethyl]phenyl}-1H-imidazol-1-yl]-N-(propan-2-yl)acetamide] | 2.6 nM
10 | COc1cccc(-c2nc(-c3ccc(CCN4CC5(COC5)C4)cc3)nn2CC(=O)NC(C)C)c1 [Example B-42, 2-[5-(3-methoxyphenyl)-3-{4-[2-(2-oxa-6-azaspiro[3.3]hept-6-yl)ethyl]phenyl}-1H-1,2,4-triazol-1-yl]-N-(propan-2-yl)acetamide] | < 10 nM
11 | CC(C)(C)NC(=O)Cc1nn(-c2ccc(CCN3C4CCC3COC4)cc2)c(=O)n1-c1ccc(F)c(Cl)c1 [Example D-31, N-tert-butyl-2-[4-(3-chloro-4-fluorophenyl)-1-{4-[2-(3-oxa-8-azabicyclo[3.2.1]oct-8-yl)ethyl]phenyl}-5-oxo-4,5-dihydro-1H-1,2,4-triazol-3-yl]acetamide] | 2.9 nM
12 | CC(C)NC(=O)Cc1nn(-c2ccc(CCN3CCC(C(F)(F)F)CC3)cc2)c(=O)n1-c1cccc(Cl)c1 [Example D-59, 2-[4-(3-chlorophenyl)-5-oxo-1-(4-{2-[4-(trifluoromethyl)piperidin-1-yl]ethyl}phenyl)-4,5-dihydro-1H-1,2,4-triazol-3-yl]-N-(propan-2-yl)acetamide] | 100 to 1000 nM
13 | COc1cccc(-c2nc(-c3ccc(CCN4CCSCC4)cc3)nn2CC(=O)NC(C)C)c1 [Example B-28, 2-[5-(3-methoxyphenyl)-3-{4-[2-(thiomorpholin-4-yl)ethyl]phenyl}-1H-1,2,4-triazol-1-yl]-N-(propan-2-yl)acetamide] | < 10 nM
14 | CC(C)NC(=O)Cn1cc(-c2cccc(OCCN3CCCCC3)c2)nc1-c1cccc(Cl)c1 [Example A-34, 2-[2-(3-chlorophenyl)-4-{3-[2-(piperidin-1-yl)ethoxy]phenyl}-1H-imidazol-1-yl]-N-(propan-2-yl)acetamide] | 100 to 1000 nM
15 | COc1cccc(-n2c(CC(=O)NC(C)(C)C)nn(-c3ccc(CCN4C5CCC4COC5)cn3)c2=O)c1 [Example D-09, N-tert-butyl-2-[4-(3-methoxyphenyl)-1-{5-[2-(3-oxa-8-azabicyclo[3.2.1]oct-8-yl)ethyl]pyridin-2-yl}-5-oxo-4,5-dihydro-1H-1,2,4-triazol-3-yl]acetamide] | 10 to 100 nM
16 | COc1cccc(-c2nc(-c3ccc(CCN4CCC(C)CC4)cc3)nn2CC(=O)NC(C)C)c1 [Example B-23, 2-[5-(3-methoxyphenyl)-3-{4-[2-(4-methylpiperidin-1-yl)ethyl]phenyl}-1H-1,2,4-triazol-1-yl]-N-(propan-2-yl)acetamide] | 10 to 100 nM
17 | CC(C)NC(=O)Cc1cn(-c2ccc(CCN3CCCCC3)cc2)nc1-c1cccc(Cl)c1 [Example C-02, 2-[3-(3-chlorophenyl)-1-{4-[2-(piperidin-1-yl)ethyl]phenyl}-1H-pyrazol-4-yl]-N-(propan-2-yl)acetamide] | 13 nM
18 | CC(C)NC(=O)Cn1cc(N2CCN(CCN3CCOCC3)CC2=O)nc1-c1cccc(Cl)c1 [Example A-46, 2-[2-(3-chlorophenyl)-4-{4-[2-(morpholin-4-yl)ethyl]-2-oxopiperazin-1-yl}-1H-imidazol-1-yl]-N-(propan-2-yl)acetamide] | 100 to 1000 nM
19 | COc1cccc(-c2nc(-c3ccc(CCN4CCC5CCCCC5C4)cc3)nn2CC(=O)NC(C)C)c1 (stereo not shown) [Example B-27, 2-[5-(3-methoxyphenyl)-3-{4-[2-(octahydroisoquinolin-2(1H)-yl)ethyl]phenyl}-1H-1,2,4-triazol-1-yl]-N-(propan-2-yl)acetamide] | 10 to 100 nM
20 | CC(C)NC(=O)Cc1nc(-c2ccc(CCN3CCOCC3)cc2)sc1-c1cccc(Cl)c1 [Example C-14, 2-[5-(3-chlorophenyl)-2-{4-[2-(morpholin-4-yl)ethyl]phenyl}-1,3-thiazol-4-yl]-N-(propan-2-yl)acetamide] | 14 nM
21 | COc1cccc(-c2nc(-c3ccc(CCN4CCOCC4)c(F)c3)nn2CC(=O)NC(C)C)c1 [Example B-19, 2-[3-{3-fluoro-4-[2-(morpholin-4-yl)ethyl]phenyl}-5-(3-methoxyphenyl)-1H-1,2,4-triazol-1-yl]-N-(propan-2-yl)acetamide] | 6.9 nM
22 | CC(C)NC(=O)Cn1cc(-c2ccc(CCN3CCC(O)C3)cc2)nc1-c1cccc(Cl)c1 (stereo not shown) [Example A-06, 2-[2-(3-chlorophenyl)-4-{4-[2-(3-hydroxypyrrolidin-1-yl)ethyl]phenyl}-1H-imidazol-1-yl]-N-(propan-2-yl)acetamide] | 10 to 100 nM
